Read-outs that look alike come from different tables or passages of the source.
Assays:
Stat1 (pY701) = experiment: Signaling pathway screen in SMN2-NSC34 cells; format: cell-based, mouse
SMN2 = SMN2 splicing pattern, semi-quantitative RT-PCR in SMA-like MEFs; format: cell-based, mouse; set-up: key to SMN2 splicing pattern MEF: −: no effect; +: effective; +++: most effective
Stat5 (pT694) = experiment: Signaling pathway screen in SMN2-NSC34 cells; format: cell-based, mouse; set-up: Stat5 (pT694) cellular response: key: −: decreasing; +/−: no activation; +: slight activation; ++: minor activation; +++: significant activation
Method: (§1) Western blot analysis. Cells treated by dsRNA, compounds or Stat5A1*6 transfected were detached by scraping, pelletting and rinsing in PBS. Cell pellets were collected after centrifugation and lysed on ice in modified RIPA buffer (50 mM Tris-HCl (pH7.4), 1% NP-40, 0.25% deoxycholic acid, 0.15M NaCl, 1 mM EDTA, 1 mM PMSF/NaF/sodium orthovanadate, and protease inhibitors cocktail (Roche, Mannheim, Germany) for 30 min. After centrifugation, the supernatants were collected and kept frozen at −20° C. Protein concentrations were determined by Bio-Rad protein assay method. For Western blot analysis, protein samples were boiled for 5 min and electrophoresed on 8% or 10% SDS-polyacrylamide gel in a 1× running buffer (25 mM Tris, 192 mM glycine, 3.4 mM SDS, pH 8.3) and subsequently electrotransferred to Polyvinylidene Fluoride tansfer membrane (Pall, Pensacola, Fla.) using a TE 22 mini-tank transfer unit (Amersham Biosciences, San Francisco, Calif.) at 35 volts overnight in transfer buffer (25 mM Tris, 192 mM glycine, 20% methanol, pH8.3). The blotting membranes were incubated in blocking solution (PBS, 5% non-fat milk, 0.2% Tween-20) for 1 hour at room temperature, and then incubated in the same solution with the primary antibody (human-specific SMN/1:1000; SMN/1:5000, Transduction Laboratories, Lexington, Ky.; phospho-Stat5a/b/1:1000, Cell signaling, Beverly, Mass.; phospho-Jak2/1:1000, Upstate, Lake Placid, N.Y.; Flag BioM2/1:1000, Sigma, St. Louis, MO; c-myc/1:200, Santa Cruz Biotech, Santa Cruz, Calif.; α-Tubilin/1:10000, Upstate, Lake Placid, N.Y., MO), overnight at 4° C. The membranes were washed and incubated in the blocking solution with the proper HRP-conjugated secondary antibody at 1/5000 dilution (Chemicon, Temecula, Calif.) for 1 hour at room temperature. After washing three times in PBS containing 0.1% Tween-20, the signals were visualized by autoradiography (Fuji Medical X-ray film, Fuji Photos, Tokyo) using enhanced chemi-luminescence (ECL detection system; Perkin-Elmer, Boston, Calif.). Western blot quantification was performed by scanning the auto-radiographs with a computerized densitometer. Signal intensities were determined by densitometry analysis (Fuji film LAS-1000 plus pictography) using the program Phoreticx 1D (Phoreticx International).
(§2) Therefore, TSA, aclarubicin and sodium vanadate all induce the activation of Stat5A in motor neuron-like NSC34 cells.

Stat3 (pY705) = experiment: Signaling pathway screen in SMN2-NSC34 cells; format: cell-based, mouse
P38 (pT180/pY182) = experiment: Signaling pathway screen in SMN2-NSC34 cells; format: cell-based, mouse
Jak2 (pY1007/pY1008) = experiment: Signaling pathway screen in SMN2-NSC34 cells; format: cell-based, mouse; on Jak2 (pY1007/pY1008) cellular response: key: −: decreasing; +/−: no activation; +: slight activation; ++: minor activation; +++: significant activation
Method: as §1, §2

RPTPβ = details: SMN2-NSC34 cells
Method: as §1

LAR = details: SMN2-NSC34 cells
Method: as §1

Crk = details: SMN2-NSC34 cells
Method: as §1

SHC = details: SMN2-NSC34 cells
Method: as §1

Jak1 (pY1022/pY1023) = details: SMN2-NSC34 cells
Method: as §1

MKP2 = details: SMN2-NSC34 cells
Method: as §1

ShcC = details: SMN2-NSC34 cells
Method: as §1

PI3-Kinase = details: SMN2-NSC34 cells
Method: as §1

NCK = details: SMN2-NSC34 cells
Method: as §1

GRB2 = details: SMN2-NSC34 cells
Method: as §1

RPTPα = details: SMN2-NSC34 cells
Method: as §1

PTP1C/SHP1 = details: SMN2-NSC34 cells
Method: as §1

GRB14 = details: SMN2-NSC34 cells
Method: as §1

KAP = details: SMN2-NSC34 cells
Method: as §1

PTP1B = details: SMN2-NSC34 cells
Method: as §1

Stat2 (pY705) = experiment: Signaling pathway screen in SMN2-NSC34 cells; format: cell-based, mouse

Sodium vanadate was tested, and the “Stat1 (pY701) cellular response” value (Stat1 (pY701); 4 hrs) was “−”, the “Stat1 (pY701) cellular response” value (Stat1 (pY701); 8 hrs) was “+/−” and the “SMN2 splicing pattern MEF” value (SMN2) was “+++”. The “influence on SMN2 expression” value (SMN2) was “found to influence SMN2 expression”, the “Stat5 (pT694) cellular response” value (Stat5 (pT694)) was “++ and +++” and the “Stat5 phosphorylation status at 8 hours” value (Stat5 (pT694)) was “remained activated”. The “phosphorylation level of Stat5 increased compared to control cells” value (Stat5 (pT694)) was “about 6 fold”, the “Stat3 (pY705) cellular response” value (Stat3 (pY705); 4 hrs) was “+” and the “Stat3 (pY705) cellular response” value (Stat3 (pY705); 8 hrs) was “++”. For the same substance, the “P38 (pT180/pY182) cellular response” value (P38 (pT180/pY182); 4 hrs) was “+/−”, the “P38 (pT180/pY182) cellular response” value (P38 (pT180/pY182); 8 hrs) was “+” and the “Jak2 (pY1007/pY1008) cellular response” value (Jak2 (pY1007/pY1008)) was “+ and ++”. The Jak2 activation (Jak2 (pY1007/pY1008)) was “found activated”, the RPTPβ cellular response (RPTPβ; 4 hrs) was “+/−” and the RPTPβ cellular response (RPTPβ; 8 hrs) was “+/−”. For the same substance, the LAR cellular response (LAR; 4 hrs) was “+/−”, the LAR cellular response (LAR; 8 hrs) was “+/−” and the Crk cellular response (Crk; 4 hrs) was “+/−”. The Crk cellular response (Crk; 8 hrs) was “+/−”, the SHC cellular response (SHC; 4 hrs) was “+/−” and the SHC cellular response (SHC; 8 hrs) was “+/−”. For the same substance, the “Jak1 (pY1022/pY1023) cellular response” value (Jak1 (pY1022/pY1023); 4 hrs) was “+/−”, the “Jak1 (pY1022/pY1023) cellular response” value (Jak1 (pY1022/pY1023); 8 hrs) was “+” and the MKP2 cellular response (MKP2; 4 hrs) was “−”. The MKP2 cellular response (MKP2; 8 hrs) was “−”, the ShcC cellular response (ShcC; 4 hrs) was “+/−” and the ShcC cellular response (ShcC; 8 hrs) was “+/−”. For the same substance, the PI3-Kinase cellular response (PI3-Kinase; 4 hrs) was “+/−”, the PI3-Kinase cellular response (PI3-Kinase; 8 hrs) was “+/−” and the NCK cellular response (NCK; 4 hrs) was “+/−”. For the same substance, the NCK cellular response (NCK; 8 hrs) was “+/−”, the GRB2 cellular response (GRB2; 4 hrs) was “+/−” and the GRB2 cellular response (GRB2; 8 hrs) was “+/−”. For the same substance, the RPTPα cellular response (RPTPα; 4 hrs) was “+/−”, the RPTPα cellular response (RPTPα; 8 hrs) was “−” and the PTP1C/SHP1 cellular response (PTP1C/SHP1; 4 hrs) was “+/−”. The PTP1C/SHP1 cellular response (PTP1C/SHP1; 8 hrs) was “−”, the GRB14 cellular response (GRB14; 4 hrs) was “+/−” and the GRB14 cellular response (GRB14; 8 hrs) was “+/−”. The KAP cellular response (KAP; 4 hrs) was “+/−”, the KAP cellular response (KAP; 8 hrs) was “−” and the PTP1B cellular response (PTP1B; 4 hrs) was “+/−”. The PTP1B cellular response (PTP1B; 8 hrs) was “−”, the “Stat2 (pY705) cellular response” value (Stat2 (pY705); 4 hrs) was “+/−” and the “Stat2 (pY705) cellular response” value (Stat2 (pY705); 8 hrs) was “+/−”.
